Assay results: patent publication US6339042B1, “Herbicidal N-cyclohexadienyl heteroaryloxyacetamides” (American Cyanamid Co., priority 1999, dated 2002)

What was measured:
Details in all cases: three weeks after treatment
[1] = system: Setaria viridis; assay: Pre-emergence herbicidal evaluation, SETVI; format: in vivo
Description: (§1) The treated pots are then placed on greenhouse benches, watered and cared for in accordance with conventional greenhouse procedures.

[2] = system: Oryza sativum; assay: Pre-emergence herbicidal evaluation, ORYSA; format: in vivo
Description: as §1

[3] = system: Alopecurus myosuroides; assay: Pre-emergence herbicidal evaluation, ALOMY; format: in vivo
Description: as §1

[4] = system: Hordeum vulgare; assay: Post-emergence herbicidal evaluation, HORVW
[5] = system: Lolium perenne; assay: Pre-emergence herbicidal evaluation, LOLPE; format: in vivo
Description: as §1

[6] = system: Amaranthus tuberculatus; assay: Post-emergence herbicidal evaluation, AMATA; format: in vivo
[7] = system: Glycine max; assay: Pre-emergence herbicidal evaluation, GLXMA; format: in vivo
Description: as §1

[8] = system: Galium aparine; assay: Post-emergence herbicidal evaluation, GALAP
Description: (§2) The compounds of the invention are tested for pre- and post-emergence herbicidal activity.
(§3) Each pot is examined three weeks after treatment and phytotoxicity is assessed according to the rating system set forth below.
(§4) These acetone solutions are diluted with water and the resulting formulations applied at dosage levels equivalent of about 0.4 to 0.1 kg per hectare of test compound per pot. After spraying the plants are placed on greenhouse benches and are cared for in the usual manner, commensurate with conventional greenhouse practices.

[9] = system: Galium aparine; assay: Pre-emergence herbicidal evaluation, GALAP; format: in vivo
Description: as §1

[10] = system: Setaria viridis; assay: Post-emergence herbicidal evaluation, SETVI
[11] = system: Triticum aestivum; assay: Pre-emergence herbicidal evaluation, TRZAW; format: in vivo
Description: as §1

[12] = system: Amaranthus tuberculatus; assay: Pre-emergence herbicidal evaluation, AMATA; format: in vivo
Description: as §1

[13] = system: Alopecurus myosuroides; assay: Post-emergence herbicidal evaluation, ALOMY
[14] = system: Echinochloa crus-galli; assay: Pre-emergence herbicidal evaluation, ECHCG; format: in vivo
Description: as §1

[15] = system: Glycine max; assay: Post-emergence herbicidal evaluation, GLXMA
[16] = system: Hordeum vulgare; assay: Pre-emergence herbicidal evaluation, HORVW; format: in vivo
Description: as §1

[17] = system: Oryza sativum; assay: Post-emergence herbicidal evaluation, ORYSA
[18] = system: Triticum aestivum; assay: Post-emergence herbicidal evaluation, TRZAW
Description: as §3, §4

[19] = system: Apera spica venti; assay: Post-emergence herbicidal evaluation, APESV
[20] = system: Apera spica venti; assay: Pre-emergence herbicidal evaluation, APESV; format: in vivo
Description: as §1

[21] = system: Zea mays; assay: Post-emergence herbicidal evaluation, ZEAMX
[22] = system: Echinochloa crus-galli; assay: Post-emergence herbicidal evaluation, ECHCG
Description: as §2, §3, §4

[23] = system: Zea mays; assay: Pre-emergence herbicidal evaluation, ZEAMX; format: in vivo
Description: as §1

[24] = system: Lolium perenne; assay: Post-emergence herbicidal evaluation, LOLPE
Description: as §3, §4

## CCN(C(=O)COc1nc2ccccc2o1)C1=CC(C)(C)CC(C)=C1 [Example 2]
[1]; 0.100 kg/ha
  phytotoxicity rating SETVI: 1 (1 - Trace effect)
[1]; 0.200 kg/ha
  phytotoxicity rating SETVI: 4 (4 - Injury)
[1]; 0.400 kg/ha
  phytotoxicity rating SETVI: 7 (7 - Good herbicidal effect)
[1]; 0.800 kg/ha
  phytotoxicity rating SETVI: 8 (8 - Approaching complete kill)
[2]; 0.100 kg/ha
  phytotoxicity rating ORYSA: 0 (0 - No effect)
[2]; 0.200 kg/ha
  phytotoxicity rating ORYSA: 0 (0 - No effect)
[2]; 0.400 kg/ha
  phytotoxicity rating ORYSA: 0 (0 - No effect)
[2]; 0.800 kg/ha
  phytotoxicity rating ORYSA: 2 (2 - Slight effect)
[3]; 0.100 kg/ha
  phytotoxicity rating ALOMY: 1 (1 - Trace effect)
[3]; 0.200 kg/ha
  phytotoxicity rating ALOMY: 5 (5 - Definite injury)
[3]; 0.400 kg/ha
  phytotoxicity rating ALOMY: 6 (6 - Herbicidal effect)
[3]; 0.800 kg/ha
  phytotoxicity rating ALOMY: 6 (6 - Herbicidal effect)
[4]; 0.100 kg/ha
  phytotoxicity rating HORVW: 1 (1 - Trace effect)
[4]; 0.200 kg/ha
  phytotoxicity rating HORVW: 2 (2 - Slight effect)
[4]; 0.400 kg/ha
  phytotoxicity rating HORVW: 2 (2 - Slight effect)
[5]; 0.100 kg/ha
  phytotoxicity rating LOLPE: 0 (0 - No effect)
[5]; 0.200 kg/ha
  phytotoxicity rating LOLPE: 2 (2 - Slight effect)
[5]; 0.400 kg/ha
  phytotoxicity rating LOLPE: 8 (8 - Approaching complete kill)
[5]; 0.800 kg/ha
  phytotoxicity rating LOLPE: 9 (9 - Complete kill)
[6]; 0.100 kg/ha
  phytotoxicity rating AMATA: 5 (5 - Definite injury)
[6]; 0.200 kg/ha
  phytotoxicity rating AMATA: 6 (6 - Herbicidal effect)
[6]; 0.400 kg/ha
  phytotoxicity rating AMATA: 6 (6 - Herbicidal effect)
[7]; 0.100 kg/ha
  phytotoxicity rating GLXMA: 0 (0 - No effect)
[7]; 0.200 kg/ha
  phytotoxicity rating GLXMA: 0 (0 - No effect)
[7]; 0.400 kg/ha
  phytotoxicity rating GLXMA: 0 (0 - No effect)
[7]; 0.800 kg/ha
  phytotoxicity rating GLXMA: 0 (0 - No effect)
[8]; 0.100 kg/ha
  phytotoxicity rating GALAP: 0 (0 - No effect)
[8]; 0.200 kg/ha
  phytotoxicity rating GALAP: 2 (2 - Slight effect)
[8]; 0.400 kg/ha
  phytotoxicity rating GALAP: 3 (3 - Moderate effect)
[9]; 0.100 kg/ha
  phytotoxicity rating GALAP: 0 (0 - No effect)
[9]; 0.200 kg/ha
  phytotoxicity rating GALAP: 0 (0 - No effect)
[9]; 0.400 kg/ha
  phytotoxicity rating GALAP: 0 (0 - No effect)
[9]; 0.800 kg/ha
  phytotoxicity rating GALAP: 0 (0 - No effect)
[10]; 0.100 kg/ha
  phytotoxicity rating SETVI: 0 (0 - No effect)
[10]; 0.200 kg/ha
  phytotoxicity rating SETVI: 2 (2 - Slight effect)
[10]; 0.400 kg/ha
  phytotoxicity rating SETVI: 6 (6 - Herbicidal effect)
[11]; 0.100 kg/ha
  phytotoxicity rating TRZAW: 0 (0 - No effect)
[11]; 0.200 kg/ha
  phytotoxicity rating TRZAW: 0 (0 - No effect)
[11]; 0.400 kg/ha
  phytotoxicity rating TRZAW: 2 (2 - Slight effect)
[11]; 0.800 kg/ha
  phytotoxicity rating TRZAW: 2 (2 - Slight effect)
[12]; 0.100 kg/ha
  phytotoxicity rating AMATA: 2 (2 - Slight effect)
[12]; 0.200 kg/ha
  phytotoxicity rating AMATA: 6 (6 - Herbicidal effect)
[12]; 0.400 kg/ha
  phytotoxicity rating AMATA: 8 (8 - Approaching complete kill)
[12]; 0.800 kg/ha
  phytotoxicity rating AMATA: 8 (8 - Approaching complete kill)
[13]; 0.100 kg/ha
  phytotoxicity rating ALOMY: 0 (0 - No effect)
[13]; 0.200 kg/ha
  phytotoxicity rating ALOMY: 4 (4 - Injury)
[13]; 0.400 kg/ha
  phytotoxicity rating ALOMY: 7 (7 - Good herbicidal effect)
[14]; 0.100 kg/ha
  phytotoxicity rating ECHCG: 3 (3 - Moderate effect)
[14]; 0.200 kg/ha
  phytotoxicity rating ECHCG: 5 (5 - Definite injury)
[14]; 0.400 kg/ha
  phytotoxicity rating ECHCG: 8 (8 - Approaching complete kill)
[14]; 0.800 kg/ha
  phytotoxicity rating ECHCG: 9 (9 - Complete kill)
[15]; 0.100 kg/ha
  phytotoxicity rating GLXMA: 5 (5 - Definite injury)
[15]; 0.200 kg/ha
  phytotoxicity rating GLXMA: 7 (7 - Good herbicidal effect)
[15]; 0.400 kg/ha
  phytotoxicity rating GLXMA: 7 (7 - Good herbicidal effect)
[16]; 0.100 kg/ha
  phytotoxicity rating HORVW: 0 (0 - No effect)
[16]; 0.200 kg/ha
  phytotoxicity rating HORVW: 2 (2 - Slight effect)
[16]; 0.400 kg/ha
  phytotoxicity rating HORVW: 2 (2 - Slight effect)
[16]; 0.800 kg/ha
  phytotoxicity rating HORVW: 3 (3 - Moderate effect)
[17]; 0.100 kg/ha
  phytotoxicity rating ORYSA: 0 (0 - No effect)
[17]; 0.200 kg/ha
  phytotoxicity rating ORYSA: 0 (0 - No effect)
[17]; 0.400 kg/ha
  phytotoxicity rating ORYSA: 1 (1 - Trace effect)
[18]; 0.100 kg/ha
  phytotoxicity rating TRZAW: 0 (0 - No effect)
[18]; 0.200 kg/ha
  phytotoxicity rating TRZAW: 0 (0 - No effect)
[18]; 0.400 kg/ha
  phytotoxicity rating TRZAW: 1 (1 - Trace effect)
[19]; 0.100 kg/ha
  phytotoxicity rating APESV: 6 (6 - Herbicidal effect)
[19]; 0.200 kg/ha
  phytotoxicity rating APESV: 7 (7 - Good herbicidal effect)
[19]; 0.400 kg/ha
  phytotoxicity rating APESV: 7 (7 - Good herbicidal effect)
[20]; 0.100 kg/ha
  phytotoxicity rating APESV: 1 (1 - Trace effect)
[20]; 0.200 kg/ha
  phytotoxicity rating APESV: 6 (6 - Herbicidal effect)
[20]; 0.400 kg/ha
  phytotoxicity rating APESV: 9 (9 - Complete kill)
[20]; 0.800 kg/ha
  phytotoxicity rating APESV: 9 (9 - Complete kill)
[21]; 0.100 kg/ha
  phytotoxicity rating ZEAMX: 0 (0 - No effect)
[21]; 0.200 kg/ha
  phytotoxicity rating ZEAMX: 0 (0 - No effect)
[21]; 0.400 kg/ha
  phytotoxicity rating ZEAMX: 0 (0 - No effect)
[22]; 0.100 kg/ha
  phytotoxicity rating ECHCG: 1 (1 - Trace effect)
[22]; 0.200 kg/ha
  phytotoxicity rating ECHCG: 2 (2 - Slight effect)
[22]; 0.400 kg/ha
  phytotoxicity rating ECHCG: 8 (8 - Approaching complete kill)
[23]; 0.100 kg/ha
  phytotoxicity rating ZEAMX: 0 (0 - No effect)
[23]; 0.200 kg/ha
  phytotoxicity rating ZEAMX: 0 (0 - No effect)
[23]; 0.400 kg/ha
  phytotoxicity rating ZEAMX: 0 (0 - No effect)
[23]; 0.800 kg/ha
  phytotoxicity rating ZEAMX: 1 (1 - Trace effect)
[24]; 0.100 kg/ha
  phytotoxicity rating LOLPE: 5 (5 - Definite injury)
[24]; 0.200 kg/ha
  phytotoxicity rating LOLPE: 7 (7 - Good herbicidal effect)
[24]; 0.400 kg/ha
  phytotoxicity rating LOLPE: 8 (8 - Approaching complete kill)
